{"source": "patent US8129527B2", "about": "“Analogs of dehydrophenylahistins and their therapeutic use” (Nereus Pharmacuticals, Inc., priority 2006, dated 2012)", "key": {"MCF-7 human breast tumor": {"tested_on": "MCF-7 human breast tumor", "test": "MCF-7 Human Breast Tumor Xenograft Model", "type": "in vivo, nude mice", "conditions": "Breast MCF-7 (2 studies); KPU-02 7.5 mg/kg ip qdx5 + Taxotere Days 1, 3, 5", "protocol": "(§1) Animals used were (exceptions are indicated for individual studies): female nude mice (nu/nu) between 5 and 6 weeks of age (˜20 g, Harlan); group size was 9-10 mice per group unless otherwise indicated.\n(§2) Selected novel compounds were administered as monotherapy via the intraperitoneal (i.p.) route at the doses indicated for the individual study; for the combination studies the selected reference chemotherapy agents were injected 15-30 min prior to the compound.\n(§3) Saline dilutions are used to achieve the injection concentrations used for the reference compounds.\nFemale nude mice (˜20 g) were implanted s.c. with 21-day release estrogen (0.25 mg) pellets 24 hours prior to the s.c. implantation with MCF-7 tumor fragments (harvested from s.c. tumors in nude mice hosts). The study then proceeded as described for the HT-29 model, using taxotere as the standard chemotherapy agent.\nIn this model unless otherwise noted for the individual study, the novel compounds were injected via the intraperitoneal route daily on Days 1-5, inclusive (qdx5); taxotere was administered intravenously on Days 1, 3 and 5 (qodx3).\nThe doses of the compounds were administered on Days 1, 2, 3, 4, and 7; Taxotere was administered on Days 1, 3 and 7."}, "MCF7 cells": {"tested_on": "MCF7 cells", "test": "Immunofluorescence microscopy of spindle and interphase microtubules", "type": "cell-based, human", "conditions": "at the IC50 for mitotic block, 20 hours", "protocol": "MCF7 human breast carcinoma cells (American Type Culture Collection, Manassas, Va.) stably transfected with GFP-alpha-tubulin (Clontech, Palo Alto, Calif.) were cultured in Dulbecco's modified Eagle's medium supplemented with 5% fetal bovine serum, 0.1% penicillin/streptomycin and nonessential amino acids (Sigma) in 250-ml tissue culture flasks or 35-mm six-well plates (doubling time, 29 hours) at 37° C. in 5% CO2.\nCells were prepared as for mitotic progression, except that cells were seeded onto poly-L-lysine (50 μg/ml, Sigma) treated coverslips. On the day of staining, cells were rinsed in PBS and fixed in 10% formalin overnight at 37° C. Cells were rinsed in PBS, permeabilized in methanol at −20° C., and hydrated with PBS. Coverslips were treated with 20% normal goat serum in PBS/BSA (1%) for 1 h at room temperature. Cells were incubated in a mouse monoclonal cocktail of anti-alpha- and beta-tubulin, DM1A/DM1B diluted in PBS/BSA for 1 hour at room temperature, then stained with FITC-conjugated secondary antibody and DAPI. Coverslips were mounted using Prolong antifade media (Molecular Probes, Eugene Oreg.)."}, "HT-29 human colon tumor": {"tested_on": "HT-29 human colon tumor", "test": "HT-29 Human Colon Tumor Xenograft Model", "type": "in vivo", "protocol": "as §2, §3\nAnimals were implanted subcutaneously (s.c.) by trocar with fragments of HT-29 tumors harvested from s.c. growing tumors in nude mice hosts. When the tumor size reached 5 mm×5 mm (about 10-17 days) the animals were matched into treatment and control groups. Mice were weighed twice weekly and tumor measurements were obtained using calipers twice weekly, starting on Day 1. The tumor measurements were converted to estimated mg tumor weight using the formula (W^2×L)/2. When the estimated tumor weight of the control group reached an average of 1000 mg the mice were weighed, sacrificed and the tumor removed."}, "[1]": {"tested_on": "N202 mammary tumor vasculature", "test": "Murine syngeneic pseudo-orthotopic breast cancer model, dorsal skinfold chamber", "excerpt": "A murine syngeneic “pseudo-orthotopic” breast cancer model was used to address these issues. […] To create the “pseudo-orthotopic milieu,” the coverslip of a dorsal skinflap chamber was removed and small pieces of mammary fatpad from donor mice were implanted into the chamber. On top of the fatpad graft, tumor spheroids containing N202 mammary tumor cells transduced with Histone (H2B)-green fluorescent protein (GFP) were applied. The use of H2B-GFP transduced cells allows for visualizing tumor growth and monitoring mitosis and apoptosis.\nFluorescence video microscopy allows for the relatively non-invasive study of tumor microcirculation in conscious mice.\nTumor area, blood flow rate, and vascular density within and surrounding the tumor were visualized. Real-time observations were recorded at various time-points using still photos and video microscopy."}, "P22 rat sarcoma [2]": {"tested_on": "P22 rat sarcoma", "test": "Tumor necrosis in the P22 rat sarcoma model", "conditions": "7.5 and 15 mg/kg IP, 24 hours post-dose"}, "MAP-rich microtubules": {"tested_on": "MAP-rich microtubules", "test": "Microtubule mean length distributions, transmission electron microscopy", "type": "biochemical, bovine", "conditions": "in words", "protocol": "Transmission electron microscopy was used to determine the mean length distribution of microtubules in the absence or presence of tested agent. At 75 minutes and prior to sedimentation, 10 μl aliquots from the polymer mass experiments were fixed by dilution into 290 μl PEM100-buffered 0.2% glutaraldehyde. Thirty microliters of fixed sample was settled onto formvar-coated 150 ICG mesh electron microscope grids for 90 seconds. Excess sample was wicked off with Whatman filter paper. Thirty microliters of cytochrome C (1 mg/ml) was applied for 30 seconds to enhance protofilament resolution and facilitate negative staining. Uranyl acetate (1.5%) was applied for 20 seconds and the excess was wicked off Grids were viewed in a Jeol electron microscope-1200 EX11 at 2000× and 30,000× magnification. The Zeiss MOPIII was used to determine microtubule length distributions and mean lengths for at least 100 microtubules per sample."}, "[3]": {"tested_on": "A549 human non small cell lung tumor", "test": "A549 Human Lung Tumor Xenograft Model", "type": "in vivo, nude mice", "conditions": "Lung A549 (1 study); KPU-02 7.5 mg/kg ip qdx5 + Taxotere Days 1, 3, 5", "protocol": "as §1, §2, §3\nAnimals were implanted s.c. by trocar with fragments of A549 tumors harvested from s.c. growing tumors in nude mice hosts. When the tumor size reached 5 mm×5 mm (about 10-17 days) the animals were matched into treatment and control groups."}, "[4]": {"tested_on": "MCF7 cells, GFP-alpha-tubulin", "test": "Analysis of microtubule dynamics, time-lapse microscopy", "type": "cell-based, human", "conditions": "concentrations effecting 25% or 50% of maximal mitotic block"}, "P22 rat sarcoma [5]": {"tested_on": "P22 rat sarcoma", "type": "in vivo, rats", "conditions": "15 mg/kg IP", "protocol": "In contrast, blood flow in non-tumor tissues was affected to a much lesser extent at 1 hour (see FIG. 35)."}, "[6]": {"tested_on": "MDA-231 human breast tumor", "test": "MDA-231 Human Breast Tumor Orthotopic Xenograft Model (mammary fat pad)", "type": "in vivo, nude mice", "conditions": "Breast MDA-231 (1 study); KPU-02 7.5 mg/kg ip Days 1, 4, 8, 11, 15 + Paclitaxel qdx5", "protocol": "The animals used were: female nude mice (nu/ni) (MDA-231 study) or B6D2F1 (B16-F10 studies) mice between 5 and 6 weeks of age (˜20 g, Harlan); group size was 10 mice per group unless otherwise indicated.\nThe cell lines used were: MDA-MB-231 human breast tumor and B16-F10 murine melanoma cells.\nNPI compounds were administered as monotherapy via the intraperitoneal route at the doses indicated for the individual study; for the combination studies the selected reference chemotherapy agents were injected 15-30 min prior to the NPI compound.\nFemale nude mice were injected in the mammary fat pad with 2×10^6 MDA-231 cells harvested from in vitro cell culture. When the tumor size reached 5 mm×5 mm (about 14-28 days) the animals were matched into treatment and control groups. The study then proceeded as described for the HT-29 model, using paclitaxel as the standard chemotherapy agent.\nIn this model unless otherwise noted for the individual study, the test compounds were administered via the intraperitoneal route on Days 1, 4, 8, 11 and 15 (q3dx5); paclitaxel was administered via the intraperitoneal route on Days 1-5 (qdx5).\nThis model involves the placement of the human tumor tissue into the mouse mammary fat pad, a surrogate of the natural environment. In this manner the possibility of a positive effect due to a specific action on the subcutaneous vascular bed is avoided."}, "HuVEC cells": {"tested_on": "HuVEC cells", "test": "Tubulin staining assay, 200 nM, 30 min (Example 15)", "type": "cell-based, human", "quoted_text": "Human umbilical vein endothelial cells (HuVECs; Cambrex CC2519A) were maintained at subconfluent densities in EGM-2 (Cambrex) media. […] For tubulin staining assays, HuVEC cells were seeded at a density of 3×10^4 cells/ml in EGM-2 on tissue culture compatible coverslips (Fisher). The plates were returned to the incubator for 2 days.\nStock (20 mM) solutions of the test compounds were prepared in 100% DMSO. 400× concentrated dilutions of the compounds were prepared in 100% DMSO. 5 μl volumes of the dilutions were added to individual wells resulting in a final concentration of 200 nM. […] The plates were returned to the incubator for 30 minutes.\nThe cells were rinsed in dPBS before fixation in 10% (v/v) neutral buffered formalin for 10 minutes at room temperature. Following fixation, α-tubulin was visualized by indirect immunofluorescence. Specifically, the cells were permeabilized in 0.2% (v/v) triton X-100/dPBS for 10 minutes. The cells were washed prior to transferring the coverslips to a humidified chamber, the coverslips were blocked for two hours in antibody buffer (2% (w/v) BSA/0.1% (v/v) Tween 20/dPBS). The coverslips were incubated with 50 μl of 0.1 μg/ml mouse α-tubulin (Molecular Probes) in antibody buffer for 1 hour before washing and incubation with 50 μl of 1 μg/ml goat anti-mouse FITC (Jackson ImmunoResearch Laboratories) for one hour in the dark. […]"}, "tubulin": {"molecular_target": "tubulin (Bos taurus, UniProt Q6B856)", "sequence (Q6B856 whole entry)": "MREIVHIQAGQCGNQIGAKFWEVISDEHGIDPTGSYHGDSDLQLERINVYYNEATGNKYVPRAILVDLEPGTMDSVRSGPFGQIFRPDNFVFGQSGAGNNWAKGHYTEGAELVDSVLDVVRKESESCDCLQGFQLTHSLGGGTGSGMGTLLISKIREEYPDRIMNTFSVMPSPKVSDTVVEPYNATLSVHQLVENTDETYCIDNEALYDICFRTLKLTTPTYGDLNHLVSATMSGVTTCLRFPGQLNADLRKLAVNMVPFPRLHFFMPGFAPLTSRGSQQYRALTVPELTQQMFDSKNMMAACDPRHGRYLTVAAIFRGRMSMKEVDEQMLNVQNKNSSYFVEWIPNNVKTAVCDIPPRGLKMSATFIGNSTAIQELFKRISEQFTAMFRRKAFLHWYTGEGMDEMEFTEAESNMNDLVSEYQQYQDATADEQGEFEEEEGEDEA", "sequence (P81947 whole entry, further chain)": "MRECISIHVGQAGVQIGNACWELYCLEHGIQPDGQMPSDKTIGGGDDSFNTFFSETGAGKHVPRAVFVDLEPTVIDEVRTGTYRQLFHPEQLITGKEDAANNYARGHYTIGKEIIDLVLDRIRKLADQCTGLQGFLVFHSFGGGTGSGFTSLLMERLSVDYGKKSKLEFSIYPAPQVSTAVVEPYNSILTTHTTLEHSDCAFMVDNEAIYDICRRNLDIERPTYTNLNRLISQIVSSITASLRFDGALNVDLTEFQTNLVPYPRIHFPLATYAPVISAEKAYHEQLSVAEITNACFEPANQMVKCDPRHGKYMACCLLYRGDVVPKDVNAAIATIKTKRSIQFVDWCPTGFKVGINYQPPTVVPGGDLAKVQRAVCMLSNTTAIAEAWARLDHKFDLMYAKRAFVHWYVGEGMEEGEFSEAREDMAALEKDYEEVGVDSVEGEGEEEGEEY", "test": "Photoaffinity labeling study of tubulin", "type": "binding", "conditions": "UV 365 nm, +/- colchicine", "excerpt": "KPU-244 and KPU-244-B1 can both be photoactivated by UV light, resulting in covalent linkage to any protein via the photoreactive benzophenone group. In one embodiment, tubulin is photoaffinity labeled with KPU-244 or KPU-244-B1. Upon irradiation with UV light, the benzophenone group forms a free radical at the carbonyl group, followed by H-abstraction in the acceptor protein, insertion of the benzophenone radical into the abstracted site, and recombination to form the labeled protein.\nUV-irradiated and control samples were visualized by 15% SDS-PAGE followed by Western blotting. Biotin-labeled molecular weight markers (Amersham Pharmacia Biotech) were included in each gel. Each gel was electroblotted onto a nitrocellulose membrane (Hybond-ECL, Amersham Pharmacia). The gels were then stained with Coomassie Brilliant Blue (Bio-Rad laboratories) to verify that equivalent amounts of tubulin were loaded in each lane. The nitrocellulose membrane was incubated with 5% skim milk in 100 mM phosphate-buffered saline (PBS, pH 7.4) at room temperature for 1 hour, then washed with 100 mM PBS (pH 7.4) containing 0.1% Tween 20 (PBS-T) for 20 min one time, then twice for 10 min each. The membrane was then incubated with streptavidin-horseradish peroxidase conjugate (diluted 1000-fold with PBS-T) for 1 hour at room temperature, and washed with PBS-T as described above. […]"}, "HT-29 human colon cells": {"tested_on": "HT-29 human colon cells", "test": "Tumor cytotoxicity assay, resazurin fluorescence, 48 h (Example 6)", "type": "cell-based", "conditions": "Example 23"}, "[7]": {"tested_on": "bovine brain microtubule protein", "test": "Tubulin polymerization assay, turbidity (Example 21)", "type": "biochemical", "conditions": "5 μM in 1% DMSO", "protocol": "Polymerization of bovine brain microtubule protein (Cytoskeleton, Inc., Denver, Colo.) was monitored by an increase in turbidity at 37° C. in microtubule buffer (80 mM PIPES, pH 6.8, 1 mM MgCl2, 1 mM EGTA, 1 mM GTP, 10% glycerol). […] Turbidity was measured as an increase in optical density at 340 nm with a thermo-controlled spectrophotometer (model 680XR microplate Reader™, Bio-Rad Laboratories)."}}, "note": "Where two headings read alike, the source gives them in different places."}
{"smiles": "CC(C)(C)c1[nH]cnc1/C=c1\\[nH]c(=O)/c(=C/c2ccccc2)[nH]c1=O", "note": "[KPU-02]", "values": [{"measurement": "Tumor Regression (#/total) NPI + Reference", "setting": "MCF-7 human breast tumor", "result": "3/20"}, {"measurement": "mitotic cells containing asters or foci of tubulin", "setting": "MCF7 cells", "result": 75, "unit": "%"}, {"measurement": "Tumor Regression (#/total) NPI + Reference", "setting": "HT-29 human colon tumor; ip, 7.5 mg/kg", "result": "4/30"}, {"measurement": "dose-dependent effect in the HT-29 model", "setting": "HT-29 human colon tumor; with CPT-11", "result": "7.5 mg/kg was statistically greater than 2.5 mg/kg"}, {"measurement": "tolerability", "setting": "[1]; i.v. infusion 5-10 mg/kg", "result": "well tolerated"}, {"measurement": "effect on tumor vasculature", "setting": "[1]; single i.v. treatment", "result": "rapid collapse of the central vasculature"}, {"measurement": "tumor necrosis", "setting": "P22 rat sarcoma [2]", "result": "dose-dependent tumor necrosis"}, {"measurement": "MT nucleation", "setting": "MAP-rich microtubules", "result": "did not affect MT nucleation"}, {"measurement": "Tumor Growth Inhibition (%) KPU-02 + Reference", "setting": "[3]", "result": 74, "unit": "%"}, {"measurement": "Tumor Regression (#/total) NPI + Reference", "setting": "[3]", "result": "0/10"}, {"measurement": "MT dynamic instability", "setting": "[4]", "result": "did not have a measurable effect on MT dynamic instability"}, {"measurement": "tumor blood flow", "setting": "P22 rat sarcoma [5]; 1 hour after administration", "result": "23 % of vehicle"}, {"measurement": "tumor blood flow", "setting": "P22 rat sarcoma [5]; 24 hours later", "result": 59, "unit": "% vehicle"}, {"measurement": "Tumor Growth Inhibition (%) KPU-02 + Reference", "setting": "[6]", "result": 71, "unit": "%"}, {"measurement": "Tumor Regression (#/total) NPI + Reference", "setting": "[6]", "result": "0/10"}, {"measurement": "tubulin depolymerization in HuVEC cells", "setting": "HuVEC cells", "result": "rapidly induce tubulin depolymerization"}]}
{"smiles": "CC(C)(C)c1ocnc1/C=c1\\[nH]c(=O)/c(=C/c2cccc(C(=O)c3ccc(CNC(=O)CCCC[C@@H]4SC[C@@H]5NC(=O)N[C@@H]54)cc3)c2)[nH]c1=O", "note": "[KPU-244-B1]", "values": [{"measurement": "binding to tubulin by photoaffinity labeling", "setting": "tubulin", "result": "selectively binds and covalently reacts with tubulin at the colchicine binding site"}, {"measurement": "IC50", "setting": "HT-29 human colon cells", "result": 910, "unit": "nM"}, {"measurement": "tubulin polymerization", "setting": "[7]", "result": "inhibit tubulin polymerization"}]}
